Source: patent US12534432B2, “Trisulfide compound” (Kyowa Pharma Chemical Co., Ltd., priority 2020, dated 2026)

Assay: hydrogen sulfide-trapping ability by methylene blue spectrophotometry
Conditions: room temperature
Experimental: The presence or absence of a hydrogen sulfide-trapping ability (hydrogen sulfide elimination effect) of pantethine trisulfide (PANSSS) was evaluated through methylene blue spectrophotometry.
Sodium sulfide nonahydrate (Na2S·9H2O) was dissolved in purified water to prepare a 50 μmol/L sodium sulfide nonahydrate solution, which was used as a H2S standard solution.
p-Aminodimethylaniline was dissolved in 10 N sulfuric acid to prepare 1 mmol/L DPDA solution.
Iron (III) chloride hexahydrate was dissolved in 1% sulfuric acid to prepare a 3 mmol/L FeCl3·6H2O solution.
A 0.5 mmol/L pantethine trisulfide solution was prepared by dissolving pantethine trisulfide in 25 mmol/L phosphate buffer (PBS, pH 7).
10 mL of the H2S standard solution (0.5 μmol, standard) was added to a stoppered test tube and stirred. 1 mL (0.5 μmol, 1 eq.) of PBS (blank) or the pantethine trisulfide solution was added to this solution and stirred for a predetermined time (0, 5, 15 or 30 minutes). After stirring, 1 mL (1 μmol, 2 eq.) of the DPDA solution and 1 mL (3 μmol, 6 eq.) of the FeCl3·6H2O solution were added thereto and further stirred, and the absorbance (wavelength: 668 nm) of the solution was measured after the absorbance of the solution stopped changing (that is, after color development due to methylene blue production was completed). This test was conducted under the conditions of room temperature.

CC(C)(CO)[C@@H](O)C(=O)NCCC(=O)NCCSSSCCNC(=O)CCNC(=O)[C@H](O)C(C)(C)CO [pantethine trisulfide]
absorbance (wavelength: 668 nm) compared to the blank (0.5 μmol H2S, 1 eq. pantethine trisulfide in PBS pH 7, stirring 0, 5, 15 or 30 minutes): the longer the contact time (reaction time) between H2S and pantethine trisulfide, the lower the absorbance compared to the blank | hydrogen sulfide-trapping ability (hydrogen sulfide elimination effect) (methylene blue spectrophotometry, 1 eq. to H2S): had a hydrogen sulfide-trapping ability
